These results are taken from patent publication US12187653B2, “Surface retarder formulation and method for replicating an acid etch or sand blast aspect on cementitious material” (GCP Applied Technologies Inc., priority 2018, dated 2025).

Data set [1] can be described thus: Etch quality of in-form surface retarder on cast concrete after pressure washing. Conditions: for surface etch: Example 6, procedure of Example 2. The procedure:
Each was used to make an in-form surface retarder by combining the materials shown below, in the order listed, in a Silverson-high shear rotor-stator mixer at 5000 rpm, and mixing for 10 minutes after the final addition.
The exemplary in-form surface retarder was roller applied in rectangles on a wood form at a rate of 400 ft^2/gallon and allowed to dry for 2 hours at 72° F.
The concrete was poured into the wood form which has the surface retarder paint applied. The concrete was allowed to dry and cure without covering for 22 hours at a temperature of 90° F.
After 22 hours of curing, the concrete was removed from the wood mold and sprayed with high pressure water from a 1900 psi pressure washer to remove the in-form surface retarder and retarded cement paste. Washing continued until water was running clear and no further cement paste is removed (this process removes whatever cement paste that has not hardened to the surface of the concrete due to the retarding effects of the acids tested).

Data set [2] in a line: Cement binding: percent of species absorbed to cement, by ion chromatography. The note with it: for % adsorbed: 1% acid in 2% KOH solution, 30 g solution on 3 g cement, 10 min; for % binding to cement: Example 6, procedure of Example 1B. The method, then: Each acid was dissolved at 1% by weight in a 2% by weight KOH solution. Thirty grams of solution was exposed to 3 g of Type I/II cement in a tube, and mixed on a tube rotator for 10 min @ 30 rpm. The resulting slurry was centrifuged for 1 min at 4000 rpm to separate the cement and adsorbed compounds from the soluble species. The soluble portion was filtered with a 0.2 micron syringe filter and then analyzed by ion chromatography using an ICS-2100 RFIC by Dionex with single point calibration with a standard at 100 ppm. Samples and standards were prepared in 50 mM KOH solution. Samples' dilutions were adjusted to be within calibration range. Data analysis run through peak area integration.
The cement binding is expressed as a percent of the species present that absorbed to the cement.

Data set [3] can be described thus: Solubility of acids in water, saturated solution measured by Total Organic Carbon. The note with it: in 100 mL water, 25° C., stirred 14 hours, TOC.
Protocol: The mixture was allowed to settle and the saturated aqueous solution of acid was decanted. Concentration was measured by Total Organic Carbon using a TOC-L CSH/CSN by Shimadzu. A calibration curve is generate based off a four point calibration of 0 ppm, 25 ppm, 50 ppm, and 100 ppm carbon. Samples are then diluted to a predetermined dilution factor. 20 mL of the diluted samples are acidified to a pH of ^˜2-3 with hydrochloric acid. Samples are run based off the calibration curve performing two 50 uL injections each to determine the total organic carbon of the sample.
The conditions of data set [4]: Table 5: resin in the given solvent. The method, then:
The solubility of resin in various organic solvents was evaluated by observation. A small amount of resin (0.2 g) was placed in a vial with 3 mL of the solvent. Observations were made immediately, after two hours and thirty minutes, and after 15 hours.

Where [5] appears, read: Example 2: retarder with 8 g acid, 400 ft^2/gallon on wood form, concrete cured 22 hours at 90° F., compared to FIG. 1.
[6] abbreviates: Example 3, same procedure as Example 2, tartaric acid forms compared.

For the compound `O=C(O)C(O)C(O)C(=O)O` (centres unmarked) [D Tartaric Acid], the Etch depth entry is given as “too deep, coarse aggregates visible” in data set [1] (setting [5]) and “too deep, coarse aggregates visible” in data set [1] (setting [6]). Moreover, the “% adsorbed” value in data set [2] is 29.1%.
On to `O=C(O)C(=O)O` [Oxalic Acid], for which the Etch depth entry in data set [1] (setting [5]) was “just right, light etch showing sand textures”. Also, the “% adsorbed” value in data set [2] came to 94.8%.
Take `O=C(O)CC(=O)O` [Malonic Acid]: the Etch depth result in data set [1] (setting [5]) is “too deep, coarse aggregates visible”. Besides, the “% adsorbed” value in data set [2] was determined as 6.3%.
Consider `O=C(O)CN(CCN(CC(=O)O)CC(=O)O)CC(=O)O` [Ethylenediamine-tetraacetic], for which the surface etch entry in data set [1] is “very light to none”. The “% binding to cement” value in data set [2] stood at 36%.
For `O=C(O)c1ccccc1C(=O)O` [Phthalic Acid], the Etch depth result in data set [1] (setting [5]) is on record as “Very light to none”. In addition, the “% adsorbed” value in data set [2] is listed as 0%.
For `O=C(O)C(O)C(O)C(=O)O` (centres unmarked) [L Tartaric Acid], the Etch depth result is listed as “too deep, coarse aggregates visible” in data set [1] (setting [5]) and “too deep, coarse aggregates visible” in data set [1] (setting [6]). Moreover, the “% adsorbed” value in data set [2] is reported as 21.5%.
Turning to `CC(C(=O)O)C(=O)O` [Methymalonic Acid, Methylmalonic acid], the Etch depth result in data set [1] (setting [5]) is on record as “Very light to none”. Besides, the “% adsorbed” value in data set [2] is 7.0%. The same compound gave a Solubility in data set [3] of 5 g/100 g.
With `O=C(O)CCC(=O)O` [Succinic Acid], in data set [1] (setting [5]), the Etch depth entry was “Lighter than optimum, not even”. Moreover, in data set [2], the “% adsorbed” value is 6.4%.
With `O=C[C@H](O)[C@@H](O)[C@H](O)[C@H](O)CO` [D-(+)-Glucose], the “% binding to cement” value in data set [2] worked out at 100%.
Still for that read-out and setting: the figure for `O=C(O)/C=C(\CC(=O)O)C(=O)O` [trans-Aconitic Acid] is 5%.
With `O=C(O)CCCCC(=O)O` [Adipic Acid], in data set [1] (setting [5]), the Etch depth result is “Lighter than optimum, not even”. Also, the “% adsorbed” value in data set [2] is 1.1%.
With `O=C(O)CCCC(=O)O` [Glutaric Acid], the Etch depth entry in data set [1] (setting [5]) was “just right, light etch showing sand textures”. Moreover, the “% adsorbed” value in data set [2] is on record as 0%. In data set [3], this compound had a Solubility of 36 g/100 g.
`NCCCCCCCCCCCC(=O)O` [12-Aminododecanoic Acid]: the surface etch entry in data set [1] was “very light to none”. The “% binding to cement” value in data set [2] is on record as 90%.
Take `O=C(O)C(O)C(O)C(=O)O` (racemic) [DL-Tartaric Acid]: the Etch depth entry was “just right, light etch showing sand textures” in data set [1] (setting [5]) and “just right, light etch showing sand textures” in data set [1] (setting [6]). Also, the “% adsorbed” value in data set [2] turned out to be 31.6%.
Take Xylene: the Resin solubility result in data set [4] was “Dissolved”.
In the case of `OB(O)O` [Boric Acid by ICP, Boric Acid], the “% binding to cement” value in data set [2] came out at 100%.
With `C/C(=C/C(=O)O)C(=O)O` [Citraconic Acid], the Etch depth entry in data set [1] (setting [5]) was “Lighter than optimum, not even”. In addition, in data set [2], the “% adsorbed” value worked out at 1.9%.
As to `CCCCOC(C)=O` [Butyl Acetate], the Resin solubility result in data set [4] is reported as “Dissolved”.
`C/C(=C\C(=O)O)C(=O)O` [Mesaconic Acid]: the Etch depth entry in data set [1] (setting [5]) is recorded as “Very light to none”. Further, the “% adsorbed” value in data set [2] was 0%.
